Values after ≈ are worked out from the molar mass of the structure shown. Read-outs that look alike come from different tables or passages of the source. Positions of bridges follow the written chain, without caps; N, C: chain ends. Non-standard residues stand in square brackets, D forms with d. Residues, ends and D or L forms follow the SMILES beside them. Lys(N3) = [N-]=[N+]=NCCCC[C@H](N)C(=O)O; R8 = C=CCCCCCC[C@@](C)(N)C(=O)O; Cba = N[C@@H](CC1CCC1)C(=O)O; S5 = C=CCCC[C@](C)(N)C(=O)O; βAla = NCCC(=O)O
Legend:
[1] = Lactate dehydrogenase (LDH) release assay; assay type: cell-based
In short: (§1)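 Geometric means of at least three independent biological runs are given for LDH release measured in HCT116 cells stably expressing a p53-driven β-lactamase reporter. Plating density was 8000 cells/well; DMSO in wells was 0.5%.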

[2] = Experimental LogD (partition coefficient); settings: not stated, Partition Coeff LogD
[3] = Solubility assay (kinetic solubility, PBS pH 7); assay type: physicochemical; settings: for solubility kinetic: pH 7, aqueous buffer, kinetic from dmso stock, read-out: Solubility
In short: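 Quantitation uses an external standard at 100 µM, prepared from 10 mM stock in acetonitrile:methanol:DMSO (10:80:10). Solubility (µM) = (peak area of sample ÷ peak area of standard) × standard concentration.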

HCT116 cells = test: Lactate dehydrogenase (LDH) release assay; assay type: cell-based
In short: as §1

Row | SMILES | EC50 ([1]; LDH: Cytotoxicity assay EC50) [µM] | logD [2] | solubility kinetic ([3]; pH 7, PBS) [µM] | EPSA (physchem) [A^2] | LDH: Cytotoxicity assay % Effect (HCT116 cells; 0% FBS 4Hr) [%] | LDH: Cytotoxicity assay % Effect (HCT116 cells; 0% FBS 16Hr) [%] | LDH: Cytotoxicity assay % Effect (HCT116 cells; 10% FBS 4Hr) [%] | EC50 ([1]; 0% FBS 4Hr, read-out: LDH: Cytotoxicity assay EC50) [µM] | EC50 ([1]; 10% FBS 4Hr, read-out: LDH: Cytotoxicity assay EC50) [µM] | Solubility [3] | Solubility ([3]; pH 7, PBS) | LDH: Cytotoxicity assay % Effect (HCT116 cells) [%]
1 | CC(=O)N[C@@H](Cc1ccccc1)C(=O)N[C@]1(C)CCCCCCC=CCCC[C@@](C)(C(=O)N[C@@H](CO)C(N)=O)NC(=O)[C@H](CC2CCC2)NC(=O)[C@H](CC(C)C)NC(=O)[C@H](CCC(N)=O)NC(=O)[C@H](Cc2c[nH]c3ccccc23)NC(=O)[C@H](Cc2ccc(O)cc2)NC(=O)[C@H](CCC(=O)O)NC1=O [MP-203] (Ac-F[R8]EYWQL[Cba][S5]S-NH2; staple 2-9) | > 50 | 2.61 | 96 (≈ 137 µg/mL) | 213 | – | – | – | – | – | – | – | –
2 | CC(=O)N[C@@H](CCCCN=[N+]=[N-])C(=O)NCCC(=O)N[C@@H](CC(C)C)C(=O)N[C@H](C(=O)N[C@@H](Cc1ccccc1)C(=O)N[C@]1(C)CCCCCCC=CCCC[C@@](C)(C(=O)N[C@@H](CO)C(=O)N[C@@H](C)C(=O)N[C@@H](C)C(N)=O)NC(=O)[C@H](CC2CCC2)NC(=O)[C@H](C)NC(=O)[C@H](C)NC(=O)[C@H](Cc2c[nH]c3ccccc23)NC(=O)[C@H](Cc2ccc(O)cc2)NC(=O)[C@H](C)NC1=O)[C@@H](C)O [MP-964, AZIDE-ATSP-7041 (E5A,Q9A)] (Ac-[Lys(N3)][βAla]LTF[R8]AYWAA[Cba][S5]SAA-NH2; staple 6-13) | – | 3.77 | – | 204 | 6.293 | 4.09 | 2.881 | > 50 | > 50 | P.B. | Poorly Behaved | –
3 | CC(=O)N[C@@H](CC(C)C)C(=O)N[C@H](C(=O)N[C@@H](Cc1ccccc1)C(=O)N[C@]1(C)CCCCCCC=CCCC[C@@](C)(C(=O)N[C@@H](CO)C(=O)N[C@@H](C)C(=O)N[C@@H](C)C(N)=O)NC(=O)[C@H](CC2CCC2)NC(=O)[C@H](CC(C)C)NC(=O)[C@H](CCCNC(=N)N)NC(=O)[C@H](Cc2c[nH]c3ccccc23)NC(=O)[C@H](Cc2ccc(O)cc2)NC(=O)[C@H](CCC(=O)O)NC1=O)[C@@H](C)O [MP-194] (Ac-LTF[R8]EYWRL[Cba][S5]SAA-NH2; staple 4-11) | > 50 | 2.87 | – | 210 | – | – | – | – | – | – | Poorly Behaved | -1.06
4 | CC(=O)N[C@@H](CC(C)C)C(=O)N[C@H](C(=O)N[C@@H](Cc1ccccc1)C(=O)NC(C)(C)C(=O)N[C@@H](CCC(=O)O)C(=O)N[C@@H](Cc1ccc(O)cc1)C(=O)N[C@@H](Cc1c[nH]c2ccccc12)C(=O)N[C@@H](CCC(N)=O)C(=O)N[C@@H](CC(C)C)C(=O)N[C@@H](CC1CCC1)C(=O)NC(C)(C)C(=O)N[C@@H](CO)C(=O)N[C@@H](C)C(=O)N[C@@H](C)C(N)=O)[C@@H](C)O [MP-7189] | > 50 | 2.12 | 24 (≈ 40 µg/mL) | 199 | – | – | – | – | – | – | – | –
5 | CC(=O)N[C@@H](Cc1c[nH]cn1)C(=O)N[C@H](C(=O)N[C@@H](Cc1ccccc1)C(=O)N[C@]1(C)CCCCCCC=CCCC[C@@](C)(C(=O)N[C@@H](CO)C(=O)N[C@@H](C)C(=O)N[C@@H](C)C(N)=O)NC(=O)[C@H](CC2CCC2)NC(=O)[C@H](CC(C)C)NC(=O)[C@H](CCC(N)=O)NC(=O)[C@H](Cc2c[nH]c3ccccc23)NC(=O)[C@H](Cc2ccc(O)cc2)NC(=O)[C@H](CCC(=O)O)NC1=O)[C@@H](C)O [MP-197, ATSP-7041 (L1H)] (Ac-HTF[R8]EYWQL[Cba][S5]SAA-NH2; staple 4-11) | > 50 | 2.56 | 17 (≈ 30.8 µg/mL) | 222 | – | – | – | – | – | – | – | –
6 | CC(=O)N[C@@H](CC(C)C)C(=O)N[C@H](C(=O)N[C@@H](Cc1ccccc1)C(=O)N[C@]1(C)CCCCCCC=CCCC[C@@](C)(C(=O)N[C@@H](CCCNC(=N)N)C(=O)N[C@@H](C)C(=O)N[C@@H](C)C(N)=O)NC(=O)[C@H](CC2CCC2)NC(=O)[C@H](CC(C)C)NC(=O)[C@H](CCC(N)=O)NC(=O)[C@H](Cc2c[nH]c3ccccc23)NC(=O)[C@H](Cc2ccc(O)cc2)NC(=O)[C@H](CCC(=O)O)NC1=O)[C@@H](C)O [MP-196] (Ac-LTF[R8]EYWQL[Cba][S5]RAA-NH2; staple 4-11) | > 50 | 2.77 | 3 (≈ 5.57 µg/mL) | 214 | – | – | – | – | – | – | – | –
7 | CC(=O)N[C@@H](CCCNC(=N)N)C(=O)N[C@H](C(=O)N[C@@H](Cc1ccccc1)C(=O)N[C@]1(C)CCCCCCC=CCCC[C@@](C)(C(=O)N[C@@H](CO)C(=O)N[C@@H](C)C(=O)N[C@@H](C)C(N)=O)NC(=O)[C@H](CC2CCC2)NC(=O)[C@H](CC(C)C)NC(=O)[C@H](CCC(N)=O)NC(=O)[C@H](Cc2c[nH]c3ccccc23)NC(=O)[C@H](Cc2ccc(O)cc2)NC(=O)[C@H](CCC(=O)O)NC1=O)[C@@H](C)O [MP-191] (Ac-RTF[R8]EYWQL[Cba][S5]SAA-NH2; staple 4-11) | > 50 | 2.72 | 3 (≈ 5.49 µg/mL) | 222 | – | – | – | – | – | – | – | –

— publication PMC10786919, “Design-rules for stapled peptides with in vivo activity and their application to Mdm2/X antagonists” (Nature Communications, 2024)
